As a reminder, the Ki is the dissociation constant of the complex between target and ligand, obtained from inhibition or displacement.

SMILES strings stand for the structures.

The text below walks through data of patent EP2970215B1, “PYRROLIDINE DERIVATIVES, PHARMACEUTICAL COMPOSITIONS CONTAINING THEM, AND THEIR USE IN THERAPY” (AbbVie Deutschland GmbH & Co. KG, priority 2013, dated 2014).

In one experiment the target is T1, human GlyT1c transporter (Homo sapiens, UniProt P48067).
T1 construct: expressed in transfected cells; host or cells: CHO cells (recombinant; line hGlyT1c_5_CHO is named for the uptake assay)
T1 sequence (P48067 1-706): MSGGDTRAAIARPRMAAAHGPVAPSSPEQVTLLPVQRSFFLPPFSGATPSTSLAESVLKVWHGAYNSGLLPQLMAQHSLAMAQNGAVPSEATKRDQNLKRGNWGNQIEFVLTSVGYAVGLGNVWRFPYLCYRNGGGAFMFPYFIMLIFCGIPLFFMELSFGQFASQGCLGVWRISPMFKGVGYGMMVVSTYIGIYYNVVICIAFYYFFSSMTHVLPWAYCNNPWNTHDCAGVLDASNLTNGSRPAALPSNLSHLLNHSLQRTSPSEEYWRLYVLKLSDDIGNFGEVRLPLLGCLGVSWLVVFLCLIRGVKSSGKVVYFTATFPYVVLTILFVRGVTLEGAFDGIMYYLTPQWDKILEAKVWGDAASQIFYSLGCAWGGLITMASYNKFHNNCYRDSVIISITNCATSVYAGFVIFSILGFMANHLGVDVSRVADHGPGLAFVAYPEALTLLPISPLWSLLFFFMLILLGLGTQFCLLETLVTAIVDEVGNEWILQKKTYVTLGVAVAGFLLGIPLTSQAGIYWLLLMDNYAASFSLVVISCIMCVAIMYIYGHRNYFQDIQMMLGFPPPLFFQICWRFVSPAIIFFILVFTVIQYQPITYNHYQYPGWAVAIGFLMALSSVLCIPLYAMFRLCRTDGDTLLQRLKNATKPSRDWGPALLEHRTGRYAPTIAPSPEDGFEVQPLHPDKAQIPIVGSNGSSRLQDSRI
Description: Radioligand binding assay using recombinant CHO cell membranes expressing human GlyT1. To be noted: radioligand binding to human GlyT1c transporter-expressing membranes. From the text: 2. Radioligand binding assays using recombinant CHO cell membranes expressing human GlyT1: […]
`Cc1cnc(CN[C@H]2CN(S(=O)(=O)c3cn(C)cn3)C[C@@H]2c2ccccc2)s1` [Example 431, (3R,4S)-1-[(1-methyl-1H-imidazol-4-yl)sulfonyl]-N-[(5-methyl-1,3-thiazol-2-yl)methyl]-4-phenylpyrrolidin-3-amine]: the Ki is ≤ 10000 nM.

For the molecule `Cn1cnc(S(=O)(=O)N2C[C@@H](C(=O)c3ccccc3)[C@H](c3ccc(F)cc3)C2)c1` (relative stereo) [Example 271, {trans-4-(4-fluorophenyl)-1-[(1-methyl-1H-imidazol-4-yl)sulfonyl]pyrrolidin-3-yl}(phenyl)methanone], the Ki was ≤ 1000 nM.

For the molecule `Cn1cnc(S(=O)(=O)N2C[C@@H](Nc3cc(Cl)ncn3)[C@H](c3ncccc3F)C2)c1` (relative stereo) [Example 772, 6-chloro-N-{trans-4-(3-fluoropyridin-2-yl)-1-[(1-methyl-1H-imidazol-4-yl)sulfonyl]pyrrolidin-3-yl}pyrimidin-4-amine], the Ki is ≤ 10000 nM.

For `Cn1cnc(S(=O)(=O)N2C[C@@H](NCc3ccccn3)[C@H](c3ccc(F)cc3)C2)c1` (relative stereo) [Example 268, trans-4-(4-fluorophenyl)-1-[(1-methyl-1H-imidazol-4-yl)sulfonyl]-N-(pyridin-2-ylmethyl)pyrrolidin-3-amine], the Ki was ≤ 10000 nM.

For the molecule `Cc1ccc(-c2ncc(CN[C@H]3CN(S(=O)(=O)c4cn(C)cn4)C[C@@H]3c3ccccc3)s2)cc1` [Example 572, (3R,4S)-1-[(1-methyl-1H-imidazol-4-yl)sulfonyl]-N-{[2-(4-methylphenyl)-1,3-thiazol-5-yl]methyl}-4-phenylpyrrolidin-3-amine], the Ki is ≤ 1000 nM.

For `Cn1cnc(S(=O)(=O)N2C[C@H](Nc3cc(OCC(F)(F)F)c(F)cn3)[C@@H](c3ccccc3)C2)c1` [Example 803, 5-fluoro-N-{(3R,4S)-1-[(1-methyl-1H-imidazol-4-yl)sulfonyl]-4-phenylpyrrolidin-3-yl}-4-(2,2,2-trifluoroethoxy)pyridin-2-amine], the Ki is ≤ 10 nM.

As to `Cn1cnc(S(=O)(=O)N2C[C@@H](C(=O)NCc3cc(C(F)(F)F)ccc3Cl)[C@H](c3ccc(F)cc3)C2)c1` (relative stereo) [Example 633, Trans-N-[2-chloro-5-(trifluoromethyl)benzyl]-4-(4-fluorophenyl)-1-[(1-methyl-1H-imidazol-4-yl)sulfonyl]pyrrolidine-3-carboxamide], the Ki is ≤ 1000 nM.

As for `CCCNC(=O)CO[C@@H]1CN(S(=O)(=O)c2cn(C)cn2)C[C@H]1c1ccc(F)cc1` (relative stereo) [Example 689, 2-({Trans-4-(4-fluorophenyl)-1-[(1-methyl-1H-imidazol-4-yl)sulfonyl]pyrrolidin-3-yl}oxy)-N-propylacetamide], the Ki is ≤ 1000 nM.

On to `Cn1cnc(S(=O)(=O)N2C[C@@H](Nc3cc(C(F)(F)F)ncn3)[C@H](C3CCCCO3)C2)c1` (relative stereo) [Example 687, N-[Trans-1-[(1-methyl-1H-imidazol-4-yl)sulfonyl]-4-(tetrahydro-2H-pyran-2-yl)pyrrolidin-3-yl]-6-(trifluoromethyl)pyrimidin-4-amine], for which the Ki was ≤ 100 nM.

`Cc1nc(N[C@H]2CN(S(=O)(=O)c3cn(C)cn3)C[C@@H]2c2ccccc2)nn1C` [Example 575, 1,5-dimethyl-N-{(3R,4S)-1-[(1-methyl-1H-imidazol-4-yl)sulfonyl]-4-phenylpyrrolidin-3-yl}-1H-1,2,4-triazol-3-amine]: the Ki was ≤ 10000 nM.

Consider `CC(C)CO[C@@H]1CN(S(=O)(=O)c2cn(C)cn2)C[C@H]1Nc1cccc(Cl)c1` (relative stereo) [Example 412, Trans-N-(3-chlorophenyl)-1-[(1-methyl-1H-imidazol-4-yl)sulfonyl]-4-(2-methylpropoxy)pyrrolidin-3-amine], for which the Ki is ≤ 1000 nM.

Regarding `CCCCCCN(CCCCCC)[C@@H]1CN(S(=O)(=O)c2cn(C)cn2)C[C@H]1c1ncccc1F` (relative stereo) [Example 763, Trans-4-(3-fluoropyridin-2-yl)-N,N-dihexyl-1-[(1-methyl-1H-imidazol-4-yl)sulfonyl]pyrrolidin-3-amine], the Ki is ≤ 1000 nM.

With `Cn1cnc(S(=O)(=O)N2C[C@H](Nc3cccc(-c4ccccn4)c3)[C@@H](c3ccccc3)C2)c1` [Example 802, (3R,4S)-1-[(1-methyl-1H-imidazol-4-yl)sulfonyl]-4-phenyl-N-[3-(pyridin-2-yl)phenyl]pyrrolidin-3-amine], the Ki is ≤ 100 nM.

In the case of `Cn1cnc(S(=O)(=O)N2C[C@@H](C(=O)c3ccc(Cl)c(Cl)c3)[C@H](c3ccc(F)cc3)C2)c1` (relative stereo) [Example 359, (3,4-Dichlorophenyl){trans-4-(4-fluorophenyl)-1-[(1-methyl-1H-imidazol-4-yl)sulfonyl]pyrrolidin-3-yl} methanone], the Ki was ≤ 1000 nM.

For the molecule `Cn1cnc(S(=O)(=O)N2C[C@H](OCCNc3ccc(Cl)cc3)[C@@H](c3ccc(F)cc3)C2)c1` [Example 740, 4-chloro-N-[2-({(3R,4S)-4-(4-fluorophenyl)-1-[(1-methyl-1H-imidazol-4-yl)sulfonyl]pyrrolidin-3-yl}oxy)ethyl]aniline], the Ki was ≤ 10000 nM.

In the case of `Cn1cnc(S(=O)(=O)N2C[C@@H](NCc3ccc(Cl)cc3Cl)[C@H](c3ccccc3)C2)c1` (relative stereo) [Example 280, trans-N-(2,4-dichlorobenzyl)-1-[(1-methyl-1H-imidazol-4-yl)sulfonyl]-4-phenylpyrrolidin-3-amine], the Ki is ≤ 10 nM.

On to `Cn1cnc(S(=O)(=O)N2C[C@@H](Nc3cc(C(F)(F)F)ncn3)[C@H](c3ccccc3)C2)c1` (relative stereo) [Example 240, N-{trans-1-[(1-methyl-1H-imidazol-4-yl)sulfonyl]-4-phenylpyrrolidin-3-yl} -6-(trifluoromethyl)pyrimidin-4-amine], for which the Ki was ≤ 100 nM.

Regarding `Cn1cnc(S(=O)(=O)N2C[C@@H](Nc3nccc(C(F)(F)F)n3)[C@H](c3ccccc3)C2)c1` (relative stereo) [Example 227, N-{trans-1-[(1-methyl-1H-imidazol-4-yl)sulfonyl]-4-phenylpyrrolidin-3-yl}-4-(trifluoromethyl)pyrimidin-2-amine], the Ki was ≤ 10000 nM.

As for `Cn1cnc(S(=O)(=O)N2C[C@@H](Nc3ccc(F)c(Cl)c3)[C@H](c3ccccc3Cl)C2)c1` (relative stereo) [Example 257, trans-N-(3-chloro-4-fluorophenyl)-4-(2-chlorophenyl)-1-[(1-methyl-1H-imidazol-4-yl)sulfonyl]pyrrolidin-3-amine], the Ki is ≤ 100 nM.

On to `Cn1cnc(S(=O)(=O)N2C[C@H](NCc3sccc3Cl)[C@@H](c3ccccc3)C2)c1` [Example 553, (3R,4S)-N-[(3-chlorothiophen-2-yl)methyl]-1-[(1-methyl-1H-imidazol-4-yl)sulfonyl]-4-phenylpyrrolidin-3-amine], for which the Ki is ≤ 1000 nM.

Take `Cn1cnc(S(=O)(=O)N2C[C@H](NCc3cc(Cl)ccc3OC(F)F)[C@@H](c3ccccc3)C2)c1` [Example 569, (3R,4S)-N-[5-chloro-2-(difluoromethoxy)benzyl]-1-[(1-methyl-1H-imidazol-4-yl)sulfonyl]-4-phenylpyrrolidin-3-amine]: the Ki was ≤ 1000 nM.

`Cc1nn(C)c(Cl)c1S(=O)(=O)N1CC(Nc2ccc(F)c(F)c2)C(c2ccccc2)C1` (centres unmarked) [Example 486, 1-[(5-chloro-1,3-dimethyl-1H-pyrazol-4-yl)sulfonyl]-N-(3,4-difluorophenyl)-4-phenylpyrrolidin-3-amine]: the Ki is ≤ 10000 nM.

Take `Cn1cnc(S(=O)(=O)N2C[C@@H](C(=O)c3cc(F)cc(Cl)c3)[C@H](c3ccc(F)cc3)C2)c1` (relative stereo) [Example 361, (3-Chloro-5-fluorophenyl){trans-4-(4-fluorophenyl)-1-[(1-methyl-1H-imidazol-4-yl)sulfonyl]pyrrolidin-3-yl} methanone]: the Ki is ≤ 1000 nM.

As for `Cn1cnc(S(=O)(=O)N2C[C@H](Nc3cc(-c4ccccc4)ncn3)[C@@H](c3ccc(F)cc3)C2)c1` [Example 722, N-{(3R,4S)-4-(4-fluorophenyl)-1-[(1-methyl-1H-imidazol-4-yl)sulfonyl]pyrrolidin-3-yl}-6-phenylpyrimidin-4-amine], the Ki was ≤ 10 nM.

Staying with this experiment, now noted: radioligand binding, recombinant CHO cell membranes expressing human GlyT1c.
In the case of `CC(C)c1ccnc(N[C@H]2CN(S(=O)(=O)c3cn(C)cn3)C[C@@H]2c2ccccc2)c1` [Example 813, N-{(3R,4S)-1-[(1-methyl-1H-imidazol-4-yl)sulfonyl]-4-phenylpyrrolidin-3-yl}-4-(propan-2-yl)pyridin-2-amine], the Ki is ≤ 100 nM.

For the molecule `Cn1cnc(S(=O)(=O)N2C[C@@H](Nc3cccc(Cl)c3)[C@H](C3CCCO3)C2)c1` (relative stereo) [Example 850, Trans-N-(3-chlorophenyl)-1 - [(1-methyl-1H-imidazol-4-yl)sulfonyl] -4-(tetrahydrofuran-2-yl)pyrrolidin-3-amine], the Ki was ≤ 1000 nM.
